Measured values reported in patent publication US6410054B1, “Immediate release eplerenone compositions” (G. D. Searle & Co., priority 1998, dated 2002).

How the values were obtained:
[1] = Single dose study: plasma pharmacokinetics of eplerenone, open lactone ring form, spironolactone; conditions: for Plasma Concentration Of Eplerenone: -0.25 h (predose); for Oral Clearance: eplerenone in plasma; for concentration at 12 h / AUC(0-t) / Cmax / MRT / Tmax / concentration at 0.5 h / concentration at 1 h / concentration at 2 h / concentration at 3 h / concentration at 4 h / concentration at 6 h / concentration at 8 h / concentration at 16 h / concentration at 24 h / concentration at 28 h / concentration at 32 h / concentration at 48 h / concentration at 72 h / concentration at 96 h / half-life: male, human, po
Description: The pharmacokinetics, safety and antialdosterone activity of single 10, 50, 100, 300 and 1000 mg oral doses of eplerenone were evaluated in a single-center, randomized, double-blind, placebo-controlled study.
The study employed seven parallel dose groups of eight healthy male humans.
The eplerenone capsules administered corresponded to the capsules (or combinations of the capsules) disclosed in Examples 4, 5, 7 and 8 above. The placebo was a conventional capsule containing lactose. […] The fludrocortisone used in the study consisted of commercially available fludrocortisone tablets (Florinef®, Squibb BV).
The subjects, who underwent a ten hour food fast prior to administration of the dose, received a single oral dose of one of the study medications together with about 180 mL of water at 0800 hours. […] Each dose of fludrocortisone was administered with 150 mL of water except for the 1.0 mg dose which was administered with 200 mL of water.
The plasma samples collected from subjects dosed with eplerenone were assayed for concentrations of eplerenone and the open lactone ring form of eplerenone. […] A subset of plasma samples was also assayed for testosterone levels. The urine collected was analyzed to determine concentrations and amounts of eplerenone and the open lactone ring form of eplerenone, the amount of sodium and potassium excreted, and the urinary log10 (sodium/potassium) ratio.

[2] = ADME study of [14C]eplerenone oral solution: plasma, whole blood, saliva pharmacokinetics; type: in vivo, humans; conditions: for Total Radioactivity AUC0-inf (± SEM) / Total Radioactivity Cmax (± SEM): 100 mg [14C]eplerenone oral solution
Description: An open-label, single dose study was employed to evaluate the absorption, distribution, metabolism and elimination profile of a single 100 mg dose of an oral solution of eplerenone.
The study employed eight healthy male humans. Each subject received a single 100 mg oral dose of a solution of [^14C]eplerenone (specific activity 0.75 μCi/mg). Plasma, saliva, breath, urine and fecal samples were collected at predetermined intervals and analyzed for sample radioactivity and the concentration of eplerenone and its open lactone ring form. Safety was determined on the basis of laboratory tests, vital signs, and the occurrence and types of adverse events.
The subjects, who underwent an overnight food fast prior to administration of the dose, received at 0800 hours a single 100 mg oral dose of an aqueous oral solution of radiolabeled eplerenone reconstituted in 80 mL of an apple juice/hydroxypropyl-β-cyclodextrin mixture. The subjects swallowed about 200 mL of water one, two and three hours post dosing.
Blood samples were collected at −0.5 (predose), 0.5, 1, 1.5, 2, 2.5, 3, 4, 6, 8, 12, 16, 24, 36, 48, 72 and 96 hours post dose. […] Individual fecal samples were collected beginning immediately after dosing and continuing through 0800 hours on day 8. In addition, one predose fecal sample was provided. Saliva samples were taken at 0.5 hour predose and at 0.5, 1, 2, 4, 6, 12, and 24 hours postdose. Breath samples were taken at 0.5 hour predose and at 1, 2, 3, 4, 6, 8, 12, 24, 36, 48 and 72 hours postdose.

[3] = male, human, plasma, 100 mg eplerenone oral solution, single dose

## COC(=O)C1CC2=CC(=O)CCC2(C)C23OC2CC2(C)C(CC[C@@]24CCC(=O)O4)C13 (stereo partly drawn) [eplerenone, methyl hydrogen 9,11α-epoxy-17α-hydroxy-3-oxopregn-4-ene-7α,21-dicarboxylate, γ-lactone]
[1]; 10 mg single oral dose
  Plasma Concentration Of Eplerenone: 0 ng/mL
  Oral Clearance: 13.3 L/h
[1]; 50 mg single oral dose
  Plasma Concentration Of Eplerenone: 0 ng/mL
  Oral Clearance: 13.7 L/h
[1]; 100 mg single oral dose
  Plasma Concentration Of Eplerenone: 0 ng/mL
  Oral Clearance: 13.1 L/h
[1]; 300 mg single oral dose
  Plasma Concentration Of Eplerenone: 0 ng/mL
  Oral Clearance: 17.6 L/h
[1]; 1000 mg single oral dose
  Plasma Concentration Of Eplerenone: 0 ng/mL
  Oral Clearance: 18.4 L/h
[1]; in vivo, 50 mg
  concentration at 12 h: 49.4 ng/mL
[1]; plasma, 10 mg
  AUC(0-t): 942 ng·h/mL
  Cmax: 191 ng/mL
  MRT: 3.9 h
  Tmax: 1.3 h
  concentration at 0.5 h: 130 ng/mL
  concentration at 1 h: 177 ng/mL
  concentration at 2 h: 159 ng/mL
  concentration at 3 h: 125 ng/mL
  concentration at 4 h: 106 ng/mL
  concentration at 6 h: 65.3 ng/mL
  concentration at 8 h: 34.4 ng/mL
  concentration at 12 h: 6 ng/mL
  concentration at 16 h: 6 ng/mL
  concentration at 24 h: 1.7 ng/mL
  concentration at 28 h: 0 ng/mL
  concentration at 32 h: 0 ng/mL
  concentration at 48 h: 0 ng/mL
  concentration at 72 h: 0 ng/mL
  concentration at 96 h: 0 ng/mL
  half-life: 2.1 h
[1]; plasma, 50 mg
  AUC(0-t): 4020 ng·h/mL
  Cmax: 797 ng/mL
  MRT: 4.2 h
  Tmax: 1.4 h
  concentration at 0.5 h: 552 ng/mL
  concentration at 1 h: 721 ng/mL
  concentration at 2 h: 693 ng/mL
  concentration at 3 h: 592 ng/mL
  concentration at 4 h: 457 ng/mL
  concentration at 6 h: 270 ng/mL
  concentration at 8 h: 146 ng/mL
  concentration at 16 h: 18.3 ng/mL
  concentration at 24 h: 3 ng/mL
  concentration at 28 h: 1.8 ng/mL
  concentration at 32 h: 0 ng/mL
  concentration at 48 h: 0 ng/mL
  concentration at 72 h: 0 ng/mL
  concentration at 96 h: 0 ng/mL
  half-life: 2.9 h
[1]; plasma, 100 mg
  AUC(0-t): 7940 ng·h/mL
  Cmax: 1500 ng/mL
  MRT: 4.9 h
  Tmax: 1.5 h
  concentration at 0.5 h: 758 ng/mL
  concentration at 1 h: 1220 ng/mL
  concentration at 2 h: 1360 ng/mL
  concentration at 3 h: 1110 ng/mL
  concentration at 4 h: 900 ng/mL
  concentration at 6 h: 558 ng/mL
  concentration at 8 h: 275 ng/mL
  concentration at 12 h: 124 ng/mL
  concentration at 16 h: 41.9 ng/mL
  concentration at 24 h: 13.1 ng/mL
  concentration at 28 h: 6.1 ng/mL
  concentration at 32 h: 3 ng/mL
  concentration at 48 h: 0 ng/mL
  concentration at 72 h: 0 ng/mL
  concentration at 96 h: 0 ng/mL
  half-life: 4.9 h
[1]; plasma, 300 mg
  AUC(0-t): 18500 ng·h/mL
  Cmax: 2970 ng/mL
  MRT: 5.5 h
  Tmax: 1.5 h
  concentration at 0.5 h: 1620 ng/mL
  concentration at 1 h: 2680 ng/mL
  concentration at 2 h: 2780 ng/mL
  concentration at 3 h: 2220 ng/mL
  concentration at 4 h: 1950 ng/mL
  concentration at 6 h: 1270 ng/mL
  concentration at 8 h: 843 ng/mL
  concentration at 12 h: 333 ng/mL
  concentration at 16 h: 142 ng/mL
  concentration at 24 h: 38.3 ng/mL
  concentration at 28 h: 21.1 ng/mL
  concentration at 32 h: 11.3 ng/mL
  concentration at 48 h: 1.7 ng/mL
  concentration at 72 h: 0 ng/mL
  concentration at 96 h: 0 ng/mL
  half-life: 3.7 h
[1]; plasma, 1000 mg
  AUC(0-t): 56400 ng·h/mL
  Cmax: 7260 ng/mL
  MRT: 7 h
  Tmax: 2.5 h
  concentration at 0.5 h: 3180 ng/mL
  concentration at 1 h: 5260 ng/mL
  concentration at 2 h: 5940 ng/mL
  concentration at 3 h: 6810 ng/mL
  concentration at 4 h: 6220 ng/mL
  concentration at 6 h: 4150 ng/mL
  concentration at 8 h: 2830 ng/mL
  concentration at 12 h: 1340 ng/mL
  concentration at 16 h: 647 ng/mL
  concentration at 24 h: 208 ng/mL
  concentration at 28 h: 107 ng/mL
  concentration at 32 h: 61.7 ng/mL
  concentration at 48 h: 22.3 ng/mL
  concentration at 72 h: 1.4 ng/mL
  concentration at 96 h: 0 ng/mL
  half-life: 15.1 h
[1]; single 10-1000 mg oral doses
  relationship between eplerenone dose and plasma concentration: linear relationship
[2]; 1.5 hour plasma samples, mean
  concentration of total radioactivity: 2390 ng/mL
[2]; Plasma
  Total Radioactivity AUC0-inf (± SEM): 18400 ± 1200 ng equivalents hr/mL
  Total Radioactivity Cmax (± SEM): 2490 ± 110 ng equivalents/mL
[2]; Saliva
  Total Radioactivity AUC0-inf (± SEM): 7960 ± 500 ng equivalents hr/mL
  Total Radioactivity Cmax (± SEM): 2170 ± 280 ng equivalents/mL
[2]; Whole Blood
  Total Radioactivity AUC0-inf (± SEM): 12800 ± 800 ng equivalents hr/mL
  Total Radioactivity Cmax (± SEM): 1770 ± 80 ng equivalents/mL
[2]; male, human, plasma, 100 mg oral solution of [14C]eplerenone, 0.5 hours after dosing
  concentration at 0.5 h: 1340 ng/mL
[2]; male, human, plasma, 100 mg oral solution of [14C]eplerenone, 1.0 hours after dosing
  concentration at 1 h: 1620 ng/mL
[2]; male, human, plasma, 100 mg oral solution of [14C]eplerenone, 1.5 hours after dosing
  concentration at 1.5 h: 1590 ng/mL
[2]; male, human, plasma, 100 mg oral solution of [14C]eplerenone, 2.0 hours after dosing
  concentration at 2 h: 1420 ng/mL
[2]; male, human, plasma, 100 mg oral solution of [14C]eplerenone, 2.5 hours after dosing
  concentration at 2.5 h: 1260 ng/mL
[2]; male, human, plasma, 100 mg oral solution of [14C]eplerenone, 3.0 hours after dosing
  concentration at 3 h: 1180 ng/mL
[2]; male, human, plasma, 100 mg oral solution of [14C]eplerenone, 4.0 hours after dosing
  concentration at 4 h: 1000 ng/mL
[2]; male, human, plasma, 100 mg oral solution of [14C]eplerenone, 6.0 hours after dosing
  concentration at 6 h: 596 ng/mL
[2]; male, human, plasma, 100 mg oral solution of [14C]eplerenone, 8.0 hours after dosing
  concentration at 8 h: 391 ng/mL
[2]; male, human, plasma, 100 mg oral solution of [14C]eplerenone, 12.0 hours after dosing
  concentration at 12 h: 149 ng/mL
[2]; male, human, plasma, 100 mg oral solution of [14C]eplerenone, 16.0 hours after dosing
  concentration at 16 h: 68 ng/mL
[2]; male, human, plasma, 100 mg oral solution of [14C]eplerenone, 24.0 hours after dosing
  concentration at 24 h: 17.3 ng/mL
[2]; male, human, plasma, 100 mg oral solution of [14C]eplerenone, 36.0 hours after dosing
  concentration at 36 h: 0 ng/mL
[2]; male, human, plasma, 100 mg oral solution of [14C]eplerenone, 48.0 hours after dosing
  concentration at 48 h: 0 ng/mL
[2]; male, human, plasma, 100 mg oral solution of [14C]eplerenone, 72.0 hours after dosing
  concentration at 72 h: 0 ng/mL
[2]; male, human, plasma, 100 mg oral solution of [14C]eplerenone, 96.0 hours after dosing
  concentration at 96 h: 0 ng/mL
[2]; male, human, plasma, 100 mg oral solution of [14C]eplerenone, −0.5 hours after dosing
  concentration at -0.5 h: 0 ng/mL
[2]; [3]
  Cmax: 1720 ng/mL
  half-life: 3.8 h
[2]; male, human, plasma, 100 mg eplerenone oral solution, single dose, read-out: AUC(0-96)
  AUC(0-t): 9540 ng·h/mL
[2]; male, human, plasma, 100 mg eplerenone oral solution, single dose, read-out: Mean Residence Time
  MRT: 4.8 h
[2]; male, human, plasma, 100 mg eplerenone oral solution, single dose, read-out: Tmax
  Tmax: 1.3 h
[2]; plasma, 100 mg eplerenone oral solution, single dose
  Oral Clearance: 11.4 L/h
